Results: patent US10449245B2 (priority 2014, dated 2019)
Several values for one entry are separate records, joined by “and”; a condition that tells them apart may be missing. Identical values can stand only once.

Tests used:
[1] = test system: Histone H3 acetylation in lymphocytes; experiment: Lymphocyte histone H3 acetylation by flow cytometry, REDUC clinical trial Part A; type: in vivo, human; design: key to Histone Acetylation, Mean: MFI, background (isotype control) MFI subtracted; details: for Histone Acetylation (anti-acetyl histone H3 MFI in lymphocytes): individual subjects 1101, 1102, 1103, 1105, 1106, 1107 = c1-c6; for Histone Acetylation (anti-acetyl histone H3 MFI in lymphocytes) / Histone Acetylation, Mean: romidepsin 5 mg/m^2 i.v. days 0, 7, 14; for Histone Acetylation, Mean: mean of subjects
Method: (§1) Part A of the clinical study contained three phases. First, a pre-treatment phase of 2-4 weeks (visit 1-visit 2a) to confirm the stability of the latent HIV-1 reservoir and determine baseline HIV-1 T lymphocyte specific immunity. Second, a viral reactivation phase of 3 weeks (visit 2 to visit 7) consisting of one cycle of romidepsin infusions at a dosing of 5 mg/m^2 administered intravenously over a 4 hour period. De-escalation down to 2.5 mg/m^2 was planned in case of dose-limiting toxicity was observed. Romidepsin was infused on days 0, 7, and 14. Third, a post-activation phase of ˜9 weeks (visit 8 to visit 11) to assess the effect of romidepsin on the size of latent HIV-1I reservoir.
Histone H3 acetylation was measured in lymphocytes using flow cytometry with intracellular cytokine staining on fresh isolated PBMCs. Freshly isolated PBMC's were fixated, permeabilised and stained with acetylation-specific antibodies, providing the possibility to evaluate epigenetic modifications on Histones (Rigby L, Muscat A, Ashley D, Algar E. Epigenetics 2012; 7(8):875-882). Briefly, PBMCs (1×10^6) were resuspended in 3 ml ice-cold PBS/1% FBS and centrifuged, then vortexed to dissolve pellet and fixative added, 100 μl 2% PFA (ice-cold), vortexed briefly and incubated on ice for 15 min. Cells were then washed in 4 ml PBS, resuspend in 200 μl PBS and stored at 4° C. until staining. Samples were washed with 3 ml FACS buffer and vortexed to dissolve cell pellet prior to adding 100 μl 0.2% Triton X-100, vortex briefly and incubate for 10 min. at room temperature (RT). Samples were then washed with FACS buffer, 600 μl Block (PBS/10% FBS) was added, sample vortexed to resuspend cell pellet and incubate for 20 min at RT. After washing with 3 ml FACS buffer 5 μl primary antibody Anti-acetyl histone H3 (rabbit) at 200 μg/ml (Merck Millipore) or isotype control at 200 μg/ml (normal rabbit serum, LifeTechnologie) was added, and samples vortexed to resuspend cell pellet, and incubated for 1 hour at RT. Following this samples […]), vortexed to resuspend cell pellet and incubated for 1 hour in the dark (RT). Finall samples were washed with FACS buffer and resuspended in 80 μl PBS and analyzed by FACS (50 000 events, anti-acetyl histone H3 Median Fluorescence Intensity, MFI, calculated by subtracting background MFI from isotype control).

HIV-1 [2] = experiment: Plasma HIV-1 RNA by transcription mediated amplification (TMA) NAT screen, REDUC Part A; type: in vivo, human; details: for TMA assay, Percent positive: share of subjects positive; for TMA assay, Percent positive / TMA assay, presence of HIV RNA: romidepsin 5 mg/m^2 i.v. days 0, 7, 14; for TMA assay, presence of HIV RNA: individual subjects 1101, 1102, 1103, 1105, 1106, 1107 = c1-c6
[3] = human, in vivo
Method: as §1
The primary objective of this part of the study was to evaluate the safety and tolerability of romidepsin at a reduced dosing of 5 mg/m^2 in HIV-infected patients.
The primary endpoint of this part was safety and tolerability; evaluation as measured by adverse events (AE), adverse reactions (AR), serious adverse events (SAE), serious adverse reactions (SAR), serious unexpected adverse reactions (SUSAR).

HIV-1 [4] = experiment: Plasma HIV RNA quantitative viral load (Cobas TaqMan HIV-1 Test v2.0), REDUC Part A; type: in vivo, human; details: for HIV VL: individual subjects 1101, 1102, 1103, 1105, 1106, 1107 = c1-c6, romidepsin 5 mg/m^2 i.v. days 0, 7, 14
Method: as §1, with “First, a pre-treatment phase of 2-4 weeks (visit 1-visit 2a) to confirm the stability of the latent HIV-1 reservoir and determine baseline HIV-1 T lymphocyte specific immunity.” left out
Plasma HIV RNA, quantitative viral load, was measured by Cobas® TaqMan® HIV-1 Test, v2.0 (Roche) according the manufacturer's instruction (routine clinical assay). The lower limit of quantification for this assay is 20 copies HIV-1 RNA/mL, but it provides a qualitative assessment below this.

[5] = test system: latently infected cell lines and primary T cells; details: cited from earlier work
[6] = visit 2A (day 0, pre-treatment)
[7] = visit 1 (day −21, pre-treatment)

C/C=C1\NC(=O)[C@H]2CSSCC/C=C/[C@H](CC(=O)N[C@H](C(C)C)C(=O)N2)OC(=O)[C@H](C(C)C)NC1=O [romidepsin, (1S,4S,7Z,10S,16E,21R)-7-ethylidene-4,21-bis(1-methylethyl)-2-oxa-12,13-dithia-5,8,20,23-tetraazabicyclo[8.7.6]tricos-16-ene-3,6,9,19,22-pentone]
Lymphocyte histone H3 acetylation, maximum fold range relative to baseline ([1]; following each romidepsin administration, 5 mg/m^2): 3.7-7.7 fold | Histone Acetylation (anti-acetyl histone H3 MFI in lymphocytes) [1, 6]: 1181 and 1258 and 562 and 1020 and 309 and 372 | Histone Acetylation, Mean [1, 6]: 783.6667 | Histone Acetylation (anti-acetyl histone H3 MFI in lymphocytes) ([1]; visit 2B (day 0 + 4 h)): 3493 and 1534 and 3481 and 2473 and 2360 and 2463 | Histone Acetylation, Mean ([1]; visit 2B (day 0 + 4 h)): 2634 | Histone Acetylation (anti-acetyl histone H3 MFI in lymphocytes) ([1]; visit 3 (day 1)): 3465 and 2197 and 2451 and 2216 and 2475 and 1757 | Histone Acetylation, Mean ([1]; visit 3 (day 1)): 2426.833 | Histone Acetylation (anti-acetyl histone H3 MFI in lymphocytes) ([1]; visit 4 (day 3)): 3102 and 2964 and 3201 and 4130 and 3302 and 2767 | Histone Acetylation, Mean ([1]; visit 4 (day 3)): 3244.333 | Histone Acetylation (anti-acetyl histone H3 MFI in lymphocytes) ([1]; visit 5A (day 7)): 2065 and 2740 and 1284 and 2042 and 2863 and 596 | Histone Acetylation, Mean ([1]; visit 5A (day 7)): 1931.667 | Histone Acetylation (anti-acetyl histone H3 MFI in lymphocytes) ([1]; visit 5B (day 7 + 4 h)): 5363 and 4597 and 4059 and 3198 and 4239 and 2214 | Histone Acetylation, Mean ([1]; visit 5B (day 7 + 4 h)): 3945 | Histone Acetylation (anti-acetyl histone H3 MFI in lymphocytes) ([1]; visit 6 (day 10)): 2788 and 4124 and 3402 and 3859 and 3748 and 3280 | Histone Acetylation, Mean ([1]; visit 6 (day 10)): 3533.5 | Histone Acetylation (anti-acetyl histone H3 MFI in lymphocytes) ([1]; visit 7A (day 14)): 2486 and 3236 and 1789 and 1794 and 1438 and 1211 | Histone Acetylation, Mean ([1]; visit 7A (day 14)): 1992.333 | Histone Acetylation (anti-acetyl histone H3 MFI in lymphocytes) ([1]; visit 7B (day 14 + 4 h)): 7228 and 3580 and 3317 and 4101 and 5467 and 3444 | Histone Acetylation, Mean ([1]; visit 7B (day 14 + 4 h)): 4522.833 | Histone Acetylation (anti-acetyl histone H3 MFI in lymphocytes) ([1]; visit 8 (day 17)): 3875 and 4502 and 3147 and 3675 and 3572 | Histone Acetylation, Mean ([1]; visit 8 (day 17)): 3754.2 | Histone Acetylation (anti-acetyl histone H3 MFI in lymphocytes) ([1]; visit 9 (day 21)): 741 and 2416 and 1607 and 1923 and 1179 and 2467 | Histone Acetylation, Mean ([1]; visit 9 (day 21)): 1722.167 | Histone Acetylation (anti-acetyl histone H3 MFI in lymphocytes) ([1]; visit 10 (day 56)): 1733 and 3579 and 2622 and 3035 and 1592 and 1865 | Histone Acetylation, Mean ([1]; visit 10 (day 56)): 2404.333 | Histone Acetylation (anti-acetyl histone H3 MFI in lymphocytes) ([1]; visit 11 (day 84)): 1243 and 1823 and 1292 and 1287 and 1059 and 970 | Histone Acetylation, Mean ([1]; visit 11 (day 84)): 1279 | TMA assay, Percent positive (HIV-1 [2]; Visit 1 (day −21, pre-treatment)): 50% | TMA assay, Percent positive (HIV-1 [2]; Visit 2A (day 0, pre-treatment)): 50% | TMA assay, Percent positive (HIV-1 [2]; Visit 2B (day 0 + 4 h)): 67% | TMA assay, Percent positive (HIV-1 [2]; Visit 3 (day 1)): 83% | TMA assay, Percent positive (HIV-1 [2]; Visit 4 (day 3)): 83% | TMA assay, Percent positive (HIV-1 [2]; Visit 5A (day 7)): 50% | TMA assay, Percent positive (HIV-1 [2]; Visit 5B (day 7 + 4 h)): 100% | TMA assay, Percent positive (HIV-1 [2]; Visit 6 (day 10)): 100% | TMA assay, Percent positive (HIV-1 [2]; Visit 7A (day 14)): 50% | TMA assay, Percent positive (HIV-1 [2]; Visit 7B (day 14 + 4 h)): 67% | TMA assay, Percent positive (HIV-1 [2]; Visit 8 (day 17)): 100% | TMA assay, Percent positive (HIV-1 [2]; Visit 9 (day 21)): 33% | Plasma HIV-1 RNA detection by transcription-mediated amplification assay (HIV-1 [2]; post-infusion time-points compared with baseline): detected more frequently | TMA assay, presence of HIV RNA (HIV-1 [2]; [7]): 1 (3×) and 0 (3×) | TMA assay, presence of HIV RNA (HIV-1 [2]; [6]): 1 (3×) and 0 (3×) | TMA assay, presence of HIV RNA (HIV-1 [2]; visit 2B (day 0 + 4 h)): 1 (4×) and 0 (2×) | TMA assay, presence of HIV RNA (HIV-1 [2]; visit 3 (day 1)): 1 (5×) and 0 | TMA assay, presence of HIV RNA (HIV-1 [2]; visit 4 (day 3)): 1 (5×) and 0 | TMA assay, presence of HIV RNA (HIV-1 [2]; visit 5A (day 7)): 1 (3×) and 0 (3×) | TMA assay, presence of HIV RNA (HIV-1 [2]; visit 5B (day 7 + 4 h)): 1 | TMA assay, presence of HIV RNA (HIV-1 [2]; visit 6 (day 10)): 1 | TMA assay, presence of HIV RNA (HIV-1 [2]; visit 7A (day 14)): 1 (3×) and 0 (3×) | TMA assay, presence of HIV RNA (HIV-1 [2]; visit 7B (day 14 + 4 h)): 1 (4×) and 0 (2×) | TMA assay, presence of HIV RNA (HIV-1 [2]; visit 8 (day 17)): 1 | TMA assay, presence of HIV RNA (HIV-1 [2]; visit 9 (day 21)): 0 (4×) and 1 (2×) | grade II AEs [3]: Two | extracellular HIV RNA, change (HIV-1 [4]; as a result of romidepsin infusion): significantly increased | plasma HIV-1 RNA (HIV-1 [4]; at baseline): < 20 copies/mL | patients with plasma HIV-1 RNA increased to readily quantifiable levels (HIV-1 [4]; at multiple post-infusion time-points): 5 of 6 | plasma HIV-1 RNA (HIV-1 [4]; range following the second infusion, standard clinical assay): 46-103 copies/mL | HIV VL (HIV-1 [4]; [7]): LOQ (LOQ = “detectable” not quantifiable HIV RNA<20 c/mL) (3×) and 40 HIV RNA copies/mL plasma and LOD (2×) | HIV VL (HIV-1 [4]; [6]): LOD | HIV VL (HIV-1 [4]; visit 2B (day 0 + 4 h)): LOQ (LOQ = “detectable” not quantifiable HIV RNA<20 c/mL) and LOD (5×) | HIV VL (HIV-1 [4]; visit 3 (day 1)): 26 HIV RNA copies/mL plasma and LOD (2×) and LOQ (LOQ = “detectable” not quantifiable HIV RNA<20 c/mL) (2×) and 27 HIV RNA copies/mL plasma | HIV VL (HIV-1 [4]; visit 4 (day 3)): LOQ (LOQ = “detectable” not quantifiable HIV RNA<20 c/mL) and 32 HIV RNA copies/mL plasma and LOD (4×) | HIV VL (HIV-1 [4]; visit 5A (day 7)): LOQ (LOQ = “detectable” not quantifiable HIV RNA<20 c/mL) and LOD (5×) | HIV VL (HIV-1 [4]; visit 5B (day 7 + 4 h)): 21 HIV RNA copies/mL plasma and LOD (3×) and 54 HIV RNA copies/mL plasma and LOQ (LOQ = “detectable” not quantifiable HIV RNA<20 c/mL) | HIV VL (HIV-1 [4]; visit 6 (day 10)): 59 HIV RNA copies/mL plasma and 74 HIV RNA copies/mL plasma and LOQ (LOQ = “detectable” not quantifiable HIV RNA<20 c/mL) and LOD and 46 HIV RNA copies/mL plasma and 103 HIV RNA copies/mL plasma | HIV VL (HIV-1 [4]; visit 7A (day 14)): LOD (5×) and LOQ (LOQ = “detectable” not quantifiable HIV RNA<20 c/mL) | HIV VL (HIV-1 [4]; visit 7B (day 14 + 4 h)): LOQ (LOQ = “detectable” not quantifiable HIV RNA<20 c/mL) and LOD (5×) | HIV VL (HIV-1 [4]; visit 9 (day 21)): LOQ (LOQ = “detectable” not quantifiable HIV RNA<20 c/mL) (3×) and LOD (3×) | HIV VL (HIV-1 [4]; visit 10 (day 56)): LOD (3×) and 42 HIV RNA copies/mL plasma and LOQ (LOQ = “detectable” not quantifiable HIV RNA<20 c/mL) (2×) | HIV VL (HIV-1 [4]; visit 11 (day 84)): LOQ (LOQ = “detectable” not quantifiable HIV RNA<20 c/mL) and LOD (4×) and 68 HIV RNA copies/mL plasma | HIV VL (HIV-1 [4]; visit V8 (day 17)): 22 HIV RNA copies/mL plasma and LOD (2×) and LOQ (LOQ = “detectable” not quantifiable HIV RNA<20 c/mL) and 119 HIV RNA copies/mL plasma | activation of HIV-1 expression [5]: potently activates HIV-1 expression
